Results published in ChEMBL document CHEMBL1773063, “Aromatic radiofluorination and biological evaluation of 2-aryl-6-[18F]fluorobenzothiazoles as a potential positron emission tomography imaging probe for β-amyloid plaques” (Bioorg Med Chem, 2011).
The source made the active and inactive calls. The calls are words filed in the database; no cut-off is given here.

What was measured:
[1] = biological target: T1, Amyloid-beta precursor protein (Homo sapiens, UniProt P05067); experiment: biochemical
Description: Displacement of [125I]TZDM from amyloid beta (1 to 42) aggregates in Alzheimer's disease-human brain homogenate after 3 hrs by gamma counting

[2] = species on record: Mus musculus; experiment: Binding affinity to beta-amyloid plaque in APPswe/PS1deltaE9 double transgenic mouse brain after 3 mins by Thioflavin-S fluorescence-based confocal microscopy; type: tissue-based
[3] = physchem; conditions: octanol/PBS
Description: Octanol-PBS partition coefficient, log P of the compound by gamma counter

[4] = biological target: T1, Amyloid-beta precursor protein; experiment: biochemical; remark: listed apart in the source
Description: Displacement of [3H]PIB from amyloid beta (1 to 42) aggregates in Alzheimer's disease-human brain homogenate after 3 hrs by gamma counting

[5] = species on record: Mus musculus; experiment: Binding affinity to beta-amyloid plaque in wild type mouse brain after 3 mins by Thioflavin-S fluorescence-based confocal microscopy; type: tissue-based
[6] = test system: Cortex; conditions: mouse, in vivo, iv, 1 h
Description: Biodistribution in ICR mouse cortex at 1.1 MBq, iv after 60 mins postinjection

[7] = test system: Cortex; conditions: mouse, in vivo, iv, 0.5 h
Description: Biodistribution in ICR mouse cortex at 1.1 MBq, iv after 30 mins postinjection

[8] = test system: Brain; conditions: mouse, in vivo, iv, 0.5 h
Description: Biodistribution in remaining brain of ICR mouse at 1.1 MBq, iv after 30 mins postinjection

[9] = in vitro; conditions: human, serum
Description: Metabolic stability in human serum assessed as compound remaining at 3.7 MBq after 120 mins by radio-TLC

[10] = test system: Cortex; conditions: mouse, in vivo, iv, 2 min
Description: Biodistribution in ICR mouse cortex at 1.1 MBq, iv after 2 mins postinjection

[11] = test system: Brain; conditions: mouse, in vivo, iv, 1 h
Description: Biodistribution in remaining brain of ICR mouse at 1.1 MBq, iv after 60 mins postinjection

[12] = test system: Cerebellum; conditions: mouse, in vivo, iv, 1 h
Description: Biodistribution in ICR mouse cerebellum at 1.1 MBq, iv after 60 mins postinjection

[13] = test system: Cerebellum; conditions: mouse, in vivo, iv, 0.5 h
Description: Biodistribution in ICR mouse cerebellum at 1.1 MBq, iv after 30 mins postinjection

[14] = test system: Cerebellum; conditions: mouse, in vivo, iv, 2 min
Description: Biodistribution in ICR mouse cerebellum at 1.1 MBq, iv after 2 mins postinjection

[15] = test system: Blood; conditions: mouse, in vivo, iv, 1 h
Description: Biodistribution in ICR mouse blood at 1.1 MBq, iv after 60 mins postinjection

[16] = test system: Brain; conditions: mouse, in vivo, iv, 2 min
Description: Biodistribution in remaining brain of ICR mouse at 1.1 MBq, iv after 2 mins postinjection

[17] = test system: Blood; conditions: mouse, in vivo, iv, 2 min
Description: Biodistribution in ICR mouse blood at 1.1 MBq, iv after 2 mins postinjection

[18] = test system: Blood; conditions: mouse, in vivo, iv, 0.5 h
Description: Biodistribution in ICR mouse blood at 1.1 MBq, iv after 30 mins postinjection

T1 sequence (P05067 whole entry): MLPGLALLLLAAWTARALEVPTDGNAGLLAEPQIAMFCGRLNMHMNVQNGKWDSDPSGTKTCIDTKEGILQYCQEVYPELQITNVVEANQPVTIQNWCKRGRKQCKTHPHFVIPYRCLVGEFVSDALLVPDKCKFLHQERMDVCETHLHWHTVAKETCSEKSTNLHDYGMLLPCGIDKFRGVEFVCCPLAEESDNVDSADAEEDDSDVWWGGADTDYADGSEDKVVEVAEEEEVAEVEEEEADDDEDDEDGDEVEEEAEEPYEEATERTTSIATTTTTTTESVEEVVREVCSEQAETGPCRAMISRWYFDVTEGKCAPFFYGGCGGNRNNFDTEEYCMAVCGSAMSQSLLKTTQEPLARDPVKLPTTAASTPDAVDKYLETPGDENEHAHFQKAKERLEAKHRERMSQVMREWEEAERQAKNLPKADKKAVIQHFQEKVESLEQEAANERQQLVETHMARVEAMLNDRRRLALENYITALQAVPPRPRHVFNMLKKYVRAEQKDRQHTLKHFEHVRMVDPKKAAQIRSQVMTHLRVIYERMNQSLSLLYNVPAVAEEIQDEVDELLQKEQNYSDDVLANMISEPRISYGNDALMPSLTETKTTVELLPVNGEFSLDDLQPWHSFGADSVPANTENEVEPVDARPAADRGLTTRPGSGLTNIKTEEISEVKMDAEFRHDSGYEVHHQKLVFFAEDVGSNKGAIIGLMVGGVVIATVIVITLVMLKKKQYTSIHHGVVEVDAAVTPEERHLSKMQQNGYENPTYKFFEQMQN

Ki [1] | Activity [2] | logP [3] | Ki [4] | Activity [5] | Drug uptake [6] | Drug uptake [7] | Drug uptake [8] | remaining at 2 h, 3.7 MBq [9] | Drug uptake [10] | Drug uptake [11] | Drug uptake [12] | Drug uptake [13] | Drug uptake [14] | Drug uptake [15] | Drug uptake [16] | Drug uptake [17] | Drug uptake [18] | Structure (SMILES)
5.5 nM | Active | 3.2 | 0.2 nM | Active | – | – | – | – | – | – | – | – | – | – | – | – | – | CNc1ccc(-c2nc3ccc(F)cc3s2)cc1
– | – | – | – | – | 1.61 % ID/g | 2.17 % ID/g | 2.8 % ID/g | 90% | 4.39 % ID/g | 2.01 % ID/g | 1.16 % ID/g | 2.03 % ID/g | 4.45 % ID/g | 1.02 % ID/g | 4.26 % ID/g | 1.55 % ID/g | 1.04 % ID/g | CN(C)c1ccc(-c2nc3ccc([18F])cc3s2)cc1
5.9 nM | – | 3.6 | 0.3 nM | – | – | – | – | – | – | – | – | – | – | – | – | – | – | CN(C)c1ccc(-c2nc3ccc(F)cc3s2)cc1
– | – | – | – | – | 0.73 % ID/g | 1.2 % ID/g | 1.91 % ID/g | 90% | 6.62 % ID/g | 1.32 % ID/g | 0.98 % ID/g | 1.38 % ID/g | 6.24 % ID/g | 1.11 % ID/g | 6.3 % ID/g | 2.08 % ID/g | 1.13 % ID/g | CNc1ccc(-c2nc3ccc([18F])cc3s2)cc1
